Assay results: ChEMBL document CHEMBL1201862, “PubChem BioAssay data set” (2004)
Active and inactive are the calls of the source.

How the values were obtained:
[1] = target: T1, Rac GTPase-activating protein 1 (Homo sapiens, UniProt Q9H0H5); experiment: blockers of MgcRacGAP-driven Rac1 GTP hydrolysis – biochemical, ADP Hunter fluorescence, primary and confirmatory, confirmation (AID 624330); assay type: functional
T1 sequence (Q9H0H5 whole entry): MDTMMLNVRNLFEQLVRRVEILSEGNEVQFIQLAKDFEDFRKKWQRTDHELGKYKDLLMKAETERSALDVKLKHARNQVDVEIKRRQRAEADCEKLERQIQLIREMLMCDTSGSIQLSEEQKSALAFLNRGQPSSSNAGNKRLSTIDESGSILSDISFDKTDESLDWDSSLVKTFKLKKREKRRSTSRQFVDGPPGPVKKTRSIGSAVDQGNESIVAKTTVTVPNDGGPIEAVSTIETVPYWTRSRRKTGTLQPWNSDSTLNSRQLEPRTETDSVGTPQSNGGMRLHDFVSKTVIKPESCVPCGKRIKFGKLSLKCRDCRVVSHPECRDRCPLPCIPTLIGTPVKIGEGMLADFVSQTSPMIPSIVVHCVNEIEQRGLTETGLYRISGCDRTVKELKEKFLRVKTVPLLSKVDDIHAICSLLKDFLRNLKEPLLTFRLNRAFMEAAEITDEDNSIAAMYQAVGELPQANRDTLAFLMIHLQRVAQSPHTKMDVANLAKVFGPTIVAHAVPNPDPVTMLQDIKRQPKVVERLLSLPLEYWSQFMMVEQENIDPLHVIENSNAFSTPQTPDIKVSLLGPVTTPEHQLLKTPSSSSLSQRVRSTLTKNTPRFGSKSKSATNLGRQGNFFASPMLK

[2] = Luminescence Cell-Based Dose Confirmation HTS to Identify Activators of 5'UTR Stem-Loop Driven Alpha-Synuclein mRNA Translation in H4 Neuroglioblastoma Cells. [Related pubchem assays: 1829 (Project Summary), 1814 (Primary HTS)]; assay type: functional
H4 = experiment: Luminescence Cell-Based Dose Response HTS to Identify Activators of 5'UTR Stem-Loop Driven Prion Protein mRNA Translation in H4 Neuroglioblastoma Cells. [Related pubchem assays: 1829 (Project Summary), 1814 (Primary HTS)]; assay type: functional; conditions: Homo sapiens
[3] = Luminescence Cell-Based Dose Response HTS to Identify Activators of Luciferase Translation or Activity in H4 […] Cells. [Related pubchem assays: 1829 (Project Summary), 1814 (Primary HTS)]; assay type: functional
INS1 = experiment: INS-1E survival protection against cytokine death – cell-based, luminescence, retest, dose response (AID 449756); assay type: functional; conditions: Rattus norvegicus;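 further: cell death triggered by IL-1 beta plus TNF-alpha plus IFN-gamma mixture; protective hits raise ATP signal compared with cytokine alone wells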
[4] = NIH3T3 cell viability loss – ATP luminescence, mouse fibroblasts, counter-screen, dose response (AID 2010); assay type: functional, cell-based;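 further: cells exposed to compound for about 90 hours before reading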
[5] = Trypanosoma cruzi growth suppression in host cells – NIH3T3 host cells, beta-gal luminescence, confirmation (AID 2044); assay type: functional, cell-based;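 further: intracellular parasites grown in NIH/3T3 mouse fibroblasts as host cells; luminescent beta-galactosidase reporter signal from transgenic T. cruzi replicating inside host cells; inhibitors lower the luminescence signal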
[6] = viability of uninfected HEp-2 cells – cell-based, HTS, cytotoxicity control for RSV inhibitor project, dose response (AID 2410); assay type: functional; conditions: human respiratory syncytial virus
[7] = viability of HCT116 lacking mutant beta-catenin – cell-based, human colon tumor, dose response (AID 1045); assay type: functional;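 further: HCT116 colon tumor cells with beta catenin knocked out; cells exposed to compound for 60 hours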
[8] = viability of PTEN-deleted HCT116 cells – cell-based, HCT116 PTEN knockout, dose response (AID 1047); assay type: functional;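 further: HCT116 colon tumor cells with PTEN knocked out; cells exposed to compound for 60 hours before readout; potency for loss of cell viability measured by luminescence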
[9] = Luminescence Cell-Based Dose Confirmation HTS to Identify Inhibitors of Platelet Dense Granule Release. [Related pubchem assays: 1663 (Primary HTS), 1678 (Summary of Project)]; assay type: functional
[10] = target: Luciferin 4-monooxygenase (Photinus pyralis, UniProt P08659); experiment: inhibition of purified Photinus pyralis luciferase – biochemical, luminescence, dose response (AID 1891)
[11] = microbe, parasite or virus in culture; assay type: functional; conditions: Mycobacterium tuberculosis
[12] = target: T2, Ubiquitin-conjugating enzyme E2 N (Homo sapiens, UniProt P61088); assay type: functional;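 further: Dose-response confirmation in a TR-FRET assay detecting UBC13-driven polyubiquitin chain formation, inhibition measured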
T2 sequence (P61088 whole entry): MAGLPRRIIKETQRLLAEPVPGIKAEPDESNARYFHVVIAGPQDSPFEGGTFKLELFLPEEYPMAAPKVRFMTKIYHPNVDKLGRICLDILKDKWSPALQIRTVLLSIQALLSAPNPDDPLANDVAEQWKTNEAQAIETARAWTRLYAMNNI

[13] = tested on: Streptococcus sp. 'group A'; experiment: Streptococcus pyogenes SK(-)GAS viability under kanamycin – luminescence, BacTiterGlo, confirmation, counter-screen for streptokinase expression inhibitor project, dose response (AID 1900); assay type: functional, organism-based
Streptococcus = experiment: GAS UMAA2166 growth inhibition – luminescence, BacTiterGlo, counter-screen for streptokinase expression inhibitor project, dose response (AID 1915); assay type: functional, organism-based;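 further: potency for reduction of bacterial viability or growth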
Streptokinase A = target: T3, Streptokinase A (Streptococcus pyogenes serotype M1, UniProt P10520); experiment: viability-normalized secreted streptokinase activity reduction – plasminogen activation absorbance, OD405, dose response (AID 1914); assay type: functional, Streptococcus pyogenes M1 GAS;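 further: secreted streptokinase activity via plasminogen activation per viability signal from cell pellet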
T3 sequence (P10520 whole entry): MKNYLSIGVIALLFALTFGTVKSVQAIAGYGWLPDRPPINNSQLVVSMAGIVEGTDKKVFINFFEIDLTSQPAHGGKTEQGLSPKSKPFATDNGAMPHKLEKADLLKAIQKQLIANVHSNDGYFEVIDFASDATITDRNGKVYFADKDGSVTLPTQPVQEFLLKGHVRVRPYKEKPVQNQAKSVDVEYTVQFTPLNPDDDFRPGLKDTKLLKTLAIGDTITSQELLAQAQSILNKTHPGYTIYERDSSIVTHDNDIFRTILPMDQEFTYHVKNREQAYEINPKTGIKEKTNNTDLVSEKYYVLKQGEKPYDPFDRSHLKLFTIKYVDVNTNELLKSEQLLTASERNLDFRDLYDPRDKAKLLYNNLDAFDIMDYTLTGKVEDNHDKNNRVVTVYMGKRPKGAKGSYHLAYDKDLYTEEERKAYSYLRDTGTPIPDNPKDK

Luciferin 4-monooxygenase, sequence (P08659 whole entry): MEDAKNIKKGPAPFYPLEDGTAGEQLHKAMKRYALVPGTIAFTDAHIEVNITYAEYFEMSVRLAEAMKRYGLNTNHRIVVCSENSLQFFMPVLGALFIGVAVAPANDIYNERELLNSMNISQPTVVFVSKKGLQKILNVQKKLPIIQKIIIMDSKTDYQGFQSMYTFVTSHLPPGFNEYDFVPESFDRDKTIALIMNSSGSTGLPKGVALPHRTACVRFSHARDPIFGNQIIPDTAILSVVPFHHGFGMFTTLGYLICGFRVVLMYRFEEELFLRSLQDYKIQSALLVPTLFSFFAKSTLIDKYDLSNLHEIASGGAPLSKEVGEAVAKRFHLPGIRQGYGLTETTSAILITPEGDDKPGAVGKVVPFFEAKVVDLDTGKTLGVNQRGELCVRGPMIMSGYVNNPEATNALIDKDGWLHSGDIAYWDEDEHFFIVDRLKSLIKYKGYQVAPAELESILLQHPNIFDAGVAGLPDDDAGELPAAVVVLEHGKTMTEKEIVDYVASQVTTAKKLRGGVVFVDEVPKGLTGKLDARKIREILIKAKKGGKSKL

With `Oc1ccc(Cc2ccc(Cl)cc2)c(O)c1` the IC50 [1] was 69.5 µM (active).

In the case of `O=C1C(/C=N/CCCN2CCCC2=O)=C(O)c2ccccc21`, the EC50 [2] is reported as 14.8 µM (active), the EC50 (H4) is reported as 12.9 µM (active) and the EC50 [3] is reported as 5.6 µM (active).

With `O=[N+]([O-])c1ccc(-n2cnc3ccccc32)c([N+](=O)[O-])c1` the AC50 (INS1) was 14.3 µM (active), the EC50 [4] was > 60 µM (inconclusive) and the EC50 [5] was 485 nM (active).

With `Cc1ccccc1-c1nnc(SCc2ccccc2)o1` the EC50 [2] was 7.97 µM (active) and the EC50 [3] was 62.5 µM (active).

In the case of `Nc1ncccc1OCc1ccc(Cl)c(Cl)c1`, the CC50 [6] is reported as 9.61 µM (active).

With `C#CCN(C(=O)c1cc(COc2cccc(C(F)(F)F)c2)on1)C1CCCCC1` the AC50 (INS1) was > 120 µM (inactive).

With `Cc1ccc(-c2nnc(S)n2/N=C/c2c(C)nn(-c3ccccc3)c2C)cc1` the EC50 [7] was 26 µM (active) and the EC50 [8] was 25.8 µM (active).

In the case of `COc1cc(/C=N/NC(=O)CCC(=O)Nc2ccc(F)cc2)ccc1O`, the IC50 [1] is reported as 35.8 µM (active).

For `CC[C@H](C)Cc1cn([C@@H](CCCCNC(=O)OC(C)(C)C)C(=O)NCCCCCCCCCCC(=O)N2CCN(C(=O)OC(C)(C)C)CC2)nn1`, the AC50 (INS1) was 7.02 µM (active).

For `O=C(CSCC(=O)N1CCOCC1)Nc1nc(-c2ccc3c(c2)OCO3)cs1`, the EC50 [2] was 86.3 µM (active), the EC50 (H4) was > 120 µM (not active) and the EC50 [3] was 56.1 µM (active).

With `Cc1cc2cc(C)c3nnc(SCC(=O)Nc4ccc(S(=O)(=O)N5CCCCC5)cc4)n3c2cc1C` the EC50 [7] was 7.24 µM (active) and the EC50 [8] was 7.79 µM (active).

In the case of `N/N=C(\Cc1cscn1)c1ccc(O)cc1O`, the EC50 [9] is reported as 62.6 µM (active), the EC50 [10] is reported as > 112 µM (not active) and the IC50 [1] is reported as 53.3 µM (active).

With `COCC(=O)O[C@]1(CCN(C)CCCc2nc3ccccc3[nH]2)CCc2cc(F)ccc2[C@@H]1C(C)C` the CC50 [11] was 14.2 µM (active) and the IC50 [12] was > 20 µM (inactive).

With `O=[N+]([O-])c1ccc(N=Nc2ccc(O)cc2O)cc1` the EC50 [9] was 3 µM (active), the EC50 [13] was 2.44 µM (active) and the EC50 [10] was 1.05 µM (active). The EC50 (Streptococcus) was 24.6 µM (active) and the EC50 (Streptokinase A) was > 50 µM (not active).

For `N#C/C(=C\c1ccc(-c2ccc(Br)cc2)o1)C(=O)NCCc1c[nH]c2ccccc12`, the CC50 [11] was > 40 µM (active).

In the case of `CCOC(=O)c1sc(NC(=O)Nc2ccc(Cl)cc2)nc1C`, the EC50 [7] is reported as 80.8 µM (active) and the EC50 [8] is reported as 63.5 µM (active).

In the case of `Cc1cccc2c(N)c3c(nc12)N(C)CC3`, the IC50 [1] is reported as 115 µM (active).

With `CCOc1ccccc1/C=c1\sc2ncnn2c1=O` the IC50 [1] was 48.7 µM (active).

With `CN1C(=O)C(CC(=O)Nc2ccccc2F)N(NC(=O)c2ccc(Br)cc2)C1=S` (configuration not stated) the CC50 [6] was 6.39 µM (active).

For `COc1cccc(CNCc2ccco2)c1O`, the IC50 [1] was 117 µM (active).
